Laboratory results taken from patent US20120136005A1, “E[…] THE TREATMENT OF ANXIETY” (MERZ PHARMA GmbH & CO. KGaA, priority 2009, published 2012).
Entries after “also recorded” stand apart in the source; their conditions may differ.

Columns and labels:
Wistar rats = assay: Shock-suppressed drinking (Vogel) test; format: in vivo; conditions: acute s.c., 30 min before the test; not statistically significant; FIG. 7
Experimental: (§1) For contextual fear conditioning, open field, fear potentiated startle and elevate plus maze, experimentally naive adult male Sprague-Dawley rats (250-300 g; Janvier, France) were housed in groups of four per cage. Colony room temperature and humidity were maintained respectively at 20±1° C. and 60±3%. Food and water were available ad libitum and the animals were kept under an alternating 12 h/12 h day-night cycle (lights on at 07.00) for at least 6 days before the experiments were started. All experiments were conducted during the light period of the day-night cycle. For the Vogel test, male experimentally naive Wistar rats (180-220 g, State Breeding Farm “Rappolovo”, St. Petersburg, Russia; N=109) were used. Each animal was used only once.
Eltoprazine hydrochloride was dissolved in sterile water. Administration of eltoprazine or vehicle (sterile water) was done s.c. (0.078 to 1.25 mg/kg) once, 60 minutes (30 min in the Vogel test) prior to start of the behavioural assay.
The apparatus consisted of 4 identical standard operant chambers with grid metal floor. Water bottle spout was protruded through the wall and connected to a shock device. […] Latency to start drinking was registered, and total drinking time and the licks number were recorded during 5 min timed from the first lick of the bottle spout. […]

5-HT1b receptor = 5-HT1b receptor (Rattus norvegicus, UniProt P28564); conditions: Schipper et al. 1990; cited from earlier work
5-HT1b receptor, sequence (P28564 whole entry): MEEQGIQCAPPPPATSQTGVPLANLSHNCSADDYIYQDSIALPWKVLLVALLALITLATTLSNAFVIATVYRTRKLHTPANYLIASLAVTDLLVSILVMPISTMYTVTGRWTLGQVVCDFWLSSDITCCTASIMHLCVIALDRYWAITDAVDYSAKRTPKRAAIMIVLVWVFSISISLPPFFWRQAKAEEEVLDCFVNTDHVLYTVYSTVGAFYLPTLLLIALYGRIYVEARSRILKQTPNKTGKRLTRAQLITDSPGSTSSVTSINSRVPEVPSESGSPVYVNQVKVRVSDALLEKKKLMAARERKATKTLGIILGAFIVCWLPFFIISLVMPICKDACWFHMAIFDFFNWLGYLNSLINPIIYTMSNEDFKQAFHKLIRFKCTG

[1] = test system: unilaterally 6-OHDA-lesioned rats; assay: Turning behaviour induced by high dose of L-DOPA in 6-OHDA-lesioned rats; format: in vivo, Sprague Dawley rats; conditions: 0.3, 1.25 and 5 mg/kg, 30 min before the test; FIG. 3
Experimental: Male Sprague Dawley rats (Elevage Janvier, Le Genest Saint Isle, France) weighing between 220 and 250 g at the beginning of the study are used in these experiments. They are housed under a 12 h light/dark cycle with free access to standard pelleted food and tap water. Animal treatment and experimental procedures are approved by local ethical committees (Regierungspräsidium Darmstadt; Germany).
Dopamine-denervating lesions are performed on rats anaesthetized with a 5:1 mixture of ketamine and xylazine (1 ml/kg, i.p.). […] The animals' turning behaviour is recorded in an automated rotometer (TSE Rotameter System, TSE-Systems GmbH, Bad Homburg, Germany) over a 90 min period after the intraperitoneal (i.p.) injection of 2.5 mg/kg dexamphetamine sulphate dissolved in saline. […]
In order to evaluate the effect of eltoprazine on parkinsonian symptoms and its interaction with L-DOPA, rotational behaviour is evaluated. The numbers of ipsilateral and contralateral turns are recorded in an automated rotometer (TSE Rotameter System, TSE-Systems GmbH, Bad Homburg, Germany) over a period of 180 min. […]

patients = conditions: clinical trials, de Koning et al. 1994; cited from earlier work
Sprague-Dawley rats = assay: Contextual fear conditioning; format: in vivo; conditions: acute s.c. 0.078 to 1.25 mg/kg, 60 min before the test; FIG. 4
Experimental: as §1
Eltoprazine hydrochloride was dissolved in sterile water. […]
For training and testing, subjects were placed in test cages (30 cm wide, 29 cm high and 25 cm deep) equipped with a grid floor consisting of 18 stainless steel bars (3 mm ID). […] 24 h after conditioning, subjects are placed back in the test cages and freezing is recorded for a period of 5 min. […]
Percent of freezing during the 5 min expression test on day 2 is taken for statistical analysis. Data are analysed by one-way ANOVA on ranks followed by rank sum tests.

c1cc2c(c(N3CCNCC3)c1)OCCO2 [eltoprazine, 1-(2,3-dihydro-1,4-benzodioxin-5-yl)piperazine]
number of accepted punishments (shocks received) in the Vogel test (Wistar rats): tendency to increase; also recorded: trend for anxiolytic activity
effect on 5-HT1b receptor (5-HT1b receptor): agonistic effect
interference with the antiparkinsonian effect of L-DOPA (turning behaviour) [1]: does not interfere
clinical safety (patients): clinically safe
time spent freezing during re-exposure to the conditioning context (Sprague-Dawley rats): dose-dependently induced anxiolytic-like effects; also recorded: very strong anxiolytic effect
